From ChEMBL document CHEMBL1153773, “Structure-activity relationship of seco-tanapartholides isolated from Achillea falcata for inhibition of HaCaT cell growth” (Eur J Med Chem, 2009)
In brackets after ≈: the same amount, converted by molar mass. Activity calls are given as the source filed them. No cut-off for these calls is given here.

How the values were obtained:
[1] = tested on: HaCaT; assay: Cytotoxicity against human HaCaT cells assessed as lactate dehydrogenase release at 50 ug/ml after 6 hrs by ELISA; type: functional
[2] = tested on: HaCaT; assay: Cytotoxicity against human HaCaT cells assessed as lactate dehydrogenase release at 100 ug/ml after 6 hrs by ELISA; type: functional
[3] = tested on: HaCaT; assay: Cytotoxicity against human HaCaT cells assessed as lactate dehydrogenase release at 15 ug/ml after 6 hrs by ELISA; type: functional
[4] = tested on: HaCaT; assay: Cytotoxicity against human HaCaT cells assessed as lactate dehydrogenase release at 75 ug/ml after 6 hrs by ELISA; type: functional
[5] = tested on: HaCaT; assay: Cytotoxicity against human HaCaT cells after 24 hrs by MTT assay; type: functional, cell-based
[6] = tested on: HaCaT; assay: Cytotoxicity against human HaCaT cells assessed as lactate dehydrogenase release at 10 ug/ml after 6 hrs by ELISA; type: functional
[7] = tested on: HaCaT; assay: Cytotoxicity against human HaCaT cells assessed as lactate dehydrogenase release at 20 ug/ml after 6 hrs by ELISA; type: functional
[8] = tested on: HaCaT; assay: Cytotoxicity against human HaCaT cells assessed as lactate dehydrogenase release at 25 ug/ml after 6 hrs by ELISA; type: functional
[9] = tested on: HaCaT; assay: Cytotoxicity against human HaCaT cells assessed as lactate dehydrogenase release at 5 ug/ml after 6 hrs by ELISA; type: functional
[10] = Cytotoxicity against human Keratinocyte cells assessed as reduction in cell viability at 10 ug/ml after 24 hrs by MTT assay; type: cell-based
[11] = tested on: HaCaT; assay: Cytotoxicity against human HaCaT cells assessed as reduction in cell viability at 5 ug/ml after 24 hrs by MTT assay; type: functional
[12] = Cytotoxicity against human keratinocytes at 25 ug/ml; type: cell-based; conditions: keratinocyte
[13] = tested on: HaCaT; assay: Cytotoxicity against human HaCaT cells assessed as reduction in cell viability at 10 ug/ml after 24 hrs by MTT assay; type: functional
[14] = Cytotoxicity against human Keratinocyte cells assessed as reduction in cell viability at 5 ug/ml after 24 hrs by MTT assay; type: cell-based
[15] = tested on: HaCaT; assay: Cell cycle arrest in human HaCaT cells assessed as accumulation at G2/M phase after 24 hrs; type: functional, cell-based

| SMILES | Activity [1] | Activity [2] | Activity [3] | Activity [4] | Activity [5] | IC50 [5] | Activity [6] | Activity [7] | Activity [8] | Activity [9] | Activity [10] | Activity [11] | Activity [12] | Activity [13] | Activity [14] | Activity [15] |
| --- | --- | --- | --- | --- | --- | --- | --- | --- | --- | --- | --- | --- | --- | --- | --- | --- |
| C=C1C(=O)O[C@H](C2=C(C)C(O)CC2=O)[C@@H]1CCC(C)=O (mixture of isomers) | 0% | 0% | 2% | 0% | Dose-dependent effect | 19.1 mg/L | 3% | 5% | 3% | 2% |  |  |  |  |  |  |
| C=C1C(=O)O[C@H](C2=C(C)C(OC)CC2=O)[C@@H]1[C@@H](O)CC(C)=O (stereo not given in full) | 2% | 0% | 4% | 1% | Dose-dependent effect | 16.7 mg/L (≈ 54.2 µM) | 4% | 4% | 5% | 4% |  |  |  |  |  |  |
| C=C1C(=O)O[C@H](C2=C(C)[C@@H](OC)CC2=O)[C@@H]1CCC(C)=O | 0% | 0% | 7% | 0% | Dose-dependent effect | 7.1 mg/L (≈ 24.3 µM) | 7% | 5% | 7% | 7% | > 10% | 44% | Toxic | 66% | > 10% | Active |
| C=C1C(=O)O[C@H](C2=C(C)[C@@H](O)CC2=O)[C@@H]1CCC(C)=O | 0% |  | 0% | 2% | Dose-dependent effect | 13 mg/L (≈ 46.7 µM) | 18% | 11% | 11% | 4% |  |  |  |  |  |  |
